From paper PMC5318439, “The Novel Toll-Like Receptor 2 Agonist SUP3 Enhances Antigen Presentation and T Cell Activation by Dendritic Cells” (Frontiers in Immunology, 2017)
Where a SMILES comes first, the peptide text is derived from it. The star is where a group is joined. X1 = CCCCCCCCCCCCCCNC(=O)OC[C@H](C*)OC(=O)NCCCCCCCCCCCCCC; Palmitoyl = CCCCCCCCCCCCCCCC(=O)*

Experiments:
[1] = Serum inflammatory cytokines after i.v. administration; format: in vivo, mice; conditions: 2 nmol per mouse i.v., 1 h, ELISA
Description: Splenic DCs (5 × 10^5 cells/mL) were stimulated by Pam3 (200 nM), SUP3 (200 nM), or CpG ODN 1668 (20 nM; Adipogen IAX-200-001) in the GM-CSF (20 ng/mL) supplemented medium for indicated periods. Cell culture supernatants were harvested at indicated time points and stored at −40°C. RAW 264.7 cells and GMDCs were stimulated by lipopolysaccharide (LPS) (20 ng/mL; Adipogen IAX-100-013), Pam3, or SUP3 (both at 200 nM) for 24 h. For in vivo administration, Pam3 (2 nmol per mouse), SUP3 (2 nmol per mouse), or LPS (1 µg per mouse) were intravenously (i.v.) injected via tail veins. Serum was obtained through tail vein bleeding and centrifuged after coagulation and stored at −40°C. Cytokines (IL-6, eBioscience 88-7064; TNFα, eBioscience 88-7324; IL-12p40, BioLegend 431604), chemokine (MIP1α, R&D Systems DY450-05), and total IgM (eBioscience, 88-50470) were quantified by ELISA kits following the instructions of manufacturers.
Figure 2 SUP3 induced more vigorous cytotoxic T lymphocytes (CTLs) responses than Pam3CSK4 without excessive production of inflammatory cytokines in vivo. […] The percentages of pentamer positive cells (CD19^− CD3^+ CD8^+ SIINFEKL/H-2Kb-Pentamer^+) in spleens, i.e., the OVA-specific CD8^+ T cells, were determined by flow cytometry (A) and the statistic calculation is presented in (B). […] “n.d.” indicates “not detected.” *p < 0.05, **p < 0.01. […]

[2] = tested on: splenic CD8^+ cDCs; experiment: CD40 and CD86 expression on splenic CD8+ cDCs after i.v. administration; format: in vivo, mice; conditions: 2 nmol per mouse i.v., 1 h
Description: Figure 4 SUP3 stimulated maturation of CD8^+ conventional dendritic cells (cDCs). (A) Purified CD8^+ cDCs were treated with SUP3 (200 nM) or Pam3 (200 nM) in the presence of granulocyte-macrophage colony-stimulating factor (GM-CSF) (20 ng/mL) for 24 h. The surface expression of costimulatory and major histocompatibility complex (MHC) molecules were then analyzed by flow cytometry. Representative data from three independent experiments were shown. “Isotype” represented relative isotype antibody staining of Pam3 or SUP3 stimulated cells. (B) SUP3 (2 nmol per mouse), Pam3 (2 nmol per mouse), or PBS were i.v. injected into mice for 1 h. Splenic CD8^+ cDCs were enriched, and surface expression of CD40 and CD86 was analyzed by flow cytometry. Representative data from two independent experiments with three mice for each group were shown. (C) Purified CD8^+ cDCs were treated with SUP3 (200 nM) or Pam3 (200 nM) for indicated periods (0~120 min), and western blot analysis was performed with the cell lysate for phosphorylated p65 (p-p65), IκBα, p-ERK, ERK, p-JNK, JNK, p-p38, and p38. Blot of p38 was also regarded as loading control. (D) Purified CD8^+ cDCs were treated with CpG 1668 (20 nM), SUP3 (200 nM), or Pam3 (200 nM) in the presence of GM-CSF (20 ng/mL). Supernatants were harvested 24 and 48 h post-stimulation, and cytokines were measured by ELISA. […]

Compound: Pam3CSK4 [reference compound]
- serum IL-6, TNFα, IL-12p40 and MIP1α levels [1]: maintained at low levels
- expressions of CD40 and CD86 on splenic CD8+ cDCs in vivo [2]: increased

Compound: CCCCCCCCCCCCCCCC(=O)N[C@@H](CSC[C@@H](COC(=O)NCCCCCCCCCCCCCC)OC(=O)NCCCCCCCCCCCCCC)C(=O)NCC(=O)N[C@@H](CCCCN)C(=O)N[C@@H](CCCCN)C(=O)N[C@@H](CCCCN)C(=O)O [SUP3, (2S,5S,8S,14R,18R)-2,5,8-tris(4-aminobutyl)-4,7,10,13,21-pentaoxo-14-palmitamido-18-((tetradecylcarbamoyl)oxy)-20-oxa-16-thia-3,6,9,12,22-pentaazahexatriacontan-1-oic acid] (Palmitoyl-C(X1)GKKK-OH)
- serum IL-6, TNFα, IL-12p40 and MIP1α levels [1]: maintained at low levels
- expressions of CD40 and CD86 on splenic CD8+ cDCs in vivo [2]: increased
